Assays:
L1210 = assay: In vitro cytotoxicity activity of compound against leukemia L1210 cell line; format: functional, cell-based, Mus musculus
Mus musculus [1] = assay: In vivo antitumor activity of compound against leukemia L1210 cell line at 60/30 mg/kg; value expressed as 102/106; format: functional
Mus musculus [2] = assay: In vivo antitumor activity of compound against leukemia L1210 cell line at 4 mg/kg; format: functional, organism-based; parameters: dose 4 mg/kg
Mus musculus [3] = assay: In vivo antitumor activity of compound against leukemia L1210 cell line at 40 mg/kg; format: functional, organism-based; parameters: dose 40 mg/kg
Mus musculus [4] = assay: In vivo antitumor activity of compound against leukemia L1210 cell line at 60/30 mg/kg; value expressed as 97/107; format: functional

COCCOCCOCCOC(C)c1c(C)c2cc3[nH]c(cc4nc(cc5nc(cc1[nH]2)C(C)=C5CCC(=O)O)C(CCC(=O)O)=C4C)c(C)c3C(C)OCCOCCOCCOC (configuration not stated)
IC50 (L1210; Mus musculus, L1210): 6.6 µM | T/C (Mus musculus [1]): 106%

CISPLATIN
T/C (Mus musculus [2]): 184%

CARBOPLATIN [listing 1 of 2 here]
IC50 (L1210; l1210): 9.92 µM

CARBOPLATIN [listing 2 of 2 here]
T/C (Mus musculus [3]): 168%

COCCOC(C)c1c(C)c2cc3[nH]c(cc4nc(cc5nc(cc1[nH]2)C(C)=C5CCC(=O)O)C(CCC(=O)O)=C4C)c(C)c3C(C)OCCOC (configuration not stated)
IC50 (L1210; Mus musculus, L1210): 2.6 µM | T/C (Mus musculus [4]): 107%

From ChEMBL document CHEMBL1146761, “Synthesis and biological activity of novel platinum(II) complexes of glutamate tethered to hydrophilic hematoporphyrin derivatives” (Bioorg Med Chem Lett, 2004)
